In publication PMC8900824, “Interactions between 2′-fluoro-(carbamoylpyridinyl)deschloroepibatidine analogues and acetylcholine-binding protein inform on potent antagonist activity against nicotinic receptors” (Acta Crystallographica. Section D, Structural Biology, 2022):
“And” between values parts separate entries of the source, which are not always exact repeats. Equal values may be shown once. Read-outs that look alike come from different tables or passages of the source.

Experiments:
α4β2 nAChR = details: cited from earlier work
AcAChBP [1] = molecular target: T1, AcAChBP (Aplysia californica, UniProt Q8WSF8, A155V/A60V); assay: Kd determination by biolayer interferometry (BLI) on immobilized AcAChBP; format: binding; details: 25°C, values with standard errors
T1 construct: made in house; host or cells: Spodoptera frugiperda (Sf9) cells, baculovirus (Bac-to-Bac)
Procedure: The K d values of compounds 1–6 were determined using an Octet RED system (Forté-Bio). AcAChBP (0.5 mg ml^−1 in buffer A) was immobilized on Ni^2+–NTA sensors for 600 s, followed by the removal of non-immobilized protein (600 s) and baseline stabilization (120 s). Association and dissociation measurements were obtained at 25°C for six concentrations of each compound (1.7–410 nM) diluted in buffer A plus 1% DMSO. BLI assays were conducted with a baseline measurement in buffer (60 s), an association measurement in the well containing the compound (120 s) and a dissociation measurement in buffer (120 s). Data processing and analysis were performed with Octet RED Data Analysis version 7.1 (Forté-Bio), where the background response of immobilized AcAChBP in buffer was subtracted.

homomeric α7 nAChR = details: ref Ondachi et al., 2016, cited from earlier work; for agonist/antagonist effect on α7 nAChR: homomeric α7
recombinant α4β2 nAChR = details: recombinant receptor, electrophysiology; ref Ondachi et al., 2016; cited from earlier work
[2] = tested on: nicotine-induced antinociception; details: in vivo; ref Ondachi et al., 2016; cited from earlier work
AcAChBP [3] = molecular target: T1, AcAChBP; set-up: method as in Hansen et al., 2005; details: read-out: AcAChBP, Kd; tryptophan fluorescence-quenching assay; ref Hansen et al., 2005; cited from earlier work
recombinant α3β4 nAChR = details: recombinant receptor, electrophysiology; ref Ondachi et al., 2016; cited from earlier work
AcAChBP [4] = molecular target: T1, AcAChBP; details: read-out: AcAChBP, Kd; isothermal titration calorimetry; ref Rucktooa et al., 2012; cited from earlier work
[5] = [3H]-epibatidine competition assay, values with standard errors, ref Ondachi et al., 2016

T1 sequence (Q8WSF8 entry or part of it A60V/A155V): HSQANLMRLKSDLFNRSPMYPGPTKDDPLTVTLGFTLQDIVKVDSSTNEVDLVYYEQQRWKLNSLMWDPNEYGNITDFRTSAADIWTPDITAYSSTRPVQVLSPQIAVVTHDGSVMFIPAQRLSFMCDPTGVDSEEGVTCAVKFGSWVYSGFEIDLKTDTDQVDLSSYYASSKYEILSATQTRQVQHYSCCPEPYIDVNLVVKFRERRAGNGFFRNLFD

SMILES | Kd (AcAChBP [1]) | agonist/antagonist effect on α7 nAChR (homomeric α7 nAChR) | agonist activity on α4β2 nAChR (recombinant α4β2 nAChR) | Ki (α4β2 nAChR; [5]) | other results
NC(=O)c1ccc(-c2cc(C3CC4CCC3N4)cnc2F)cc1 (centres unmarked) [Compound 1] | 9.8 ± 0.03 nM | agonists | mixed partial agonists |  | Ki (α4β2 nAChR): 0.12 ± 0.02 nM
NC(=O)c1ccnc(-c2cc(C3CC4CCC3N4)cnc2F)c1 (centres unmarked) [Compound 2] | 60 ± 0.14 nM | only an antagonist |  | 0.28 ± 0.01 nM | AcAChBP, Kd (AcAChBP [1]): lowest affinity; antagonism of the antinociceptive action of nicotine [2]: a potency approaching that of varenicline
NC(=O)c1ccc(-c2cc(C3CC4CCC3N4)cnc2F)nc1 (centres unmarked) [Compound 3] | 29 ± 0.05 nM | agonists | mixed partial agonists | 0.94 ± 0.07 nM | 
NC(=O)c1ccc(-c2cc(C3CC4CCC3N4)cnc2F)cn1 (centres unmarked) [Compound 4] | 33 ± 0.08 nM |  |  | 0.07 ± 0.002 nM | subtype selectivity α4β2 over α7 (homomeric α7 nAChR): selective for α4β2 over α7
NC(=O)c1cncc(-c2cc(C3CC4CCC3N4)cnc2F)c1 (centres unmarked) [Compound 5] | ~30 nM and 30 nM |  |  | 0.28 ± 0.03 nM | subtype selectivity α4β2 over α7 (homomeric α7 nAChR): selective for α4β2 over α7
NC(=O)c1cc(-c2cc(C3CC4CCC3N4)cnc2F)ccn1 (centres unmarked) [Compound 6] | 9.8 ± 0.01 nM |  |  | 0.67 ± 0.28 nM | 
Clc1ccc([C@H]2C[C@@H]3CC[C@H]2N3)cn1 [Epibatidine, (1R,2R,4S)-2-(6-chloro-3-pyridinyl)-7-azabicyclo[2.2.1]heptane] |  |  | full agonist |  | Kd (AcAChBP [3]): 14 nM; agonist activity on α3β4 nAChR (recombinant α3β4 nAChR): full agonist
CN1CCC[C@H]1c1cccnc1 [Nicotine] |  |  |  |  | Kd (AcAChBP [4]): 835 nM
c1cnc2cc3c(cc2n1)[C@@H]1CNC[C@H]3C1 [Varenicline] |  |  |  |  | Kd (AcAChBP [4]): 342 nM
